Test results taken from publication PMC11808397, “Development of selective nanomolar cyclic peptide ligands as GBA1 enzyme stabilisers” (RSC Chemical Biology, 2025).
Positions of bridges follow the written chain, without caps; N, C: chain ends. Non-standard residues stand in square brackets, D forms with d. Residues, ends and D or L forms follow the SMILES beside them.

Assays:
GBA2 = biological target: T1, GBA2 (Homo sapiens, UniProt Q9HCG7); assay: GBA2 inhibition in overexpressing HEK293T lysates; format: biochemical; details: McIlvaine pH 5.8, 4-MU substrate
T1 construct: expressed in transfected cells
T1 sequence (Q9HCG7 1-927): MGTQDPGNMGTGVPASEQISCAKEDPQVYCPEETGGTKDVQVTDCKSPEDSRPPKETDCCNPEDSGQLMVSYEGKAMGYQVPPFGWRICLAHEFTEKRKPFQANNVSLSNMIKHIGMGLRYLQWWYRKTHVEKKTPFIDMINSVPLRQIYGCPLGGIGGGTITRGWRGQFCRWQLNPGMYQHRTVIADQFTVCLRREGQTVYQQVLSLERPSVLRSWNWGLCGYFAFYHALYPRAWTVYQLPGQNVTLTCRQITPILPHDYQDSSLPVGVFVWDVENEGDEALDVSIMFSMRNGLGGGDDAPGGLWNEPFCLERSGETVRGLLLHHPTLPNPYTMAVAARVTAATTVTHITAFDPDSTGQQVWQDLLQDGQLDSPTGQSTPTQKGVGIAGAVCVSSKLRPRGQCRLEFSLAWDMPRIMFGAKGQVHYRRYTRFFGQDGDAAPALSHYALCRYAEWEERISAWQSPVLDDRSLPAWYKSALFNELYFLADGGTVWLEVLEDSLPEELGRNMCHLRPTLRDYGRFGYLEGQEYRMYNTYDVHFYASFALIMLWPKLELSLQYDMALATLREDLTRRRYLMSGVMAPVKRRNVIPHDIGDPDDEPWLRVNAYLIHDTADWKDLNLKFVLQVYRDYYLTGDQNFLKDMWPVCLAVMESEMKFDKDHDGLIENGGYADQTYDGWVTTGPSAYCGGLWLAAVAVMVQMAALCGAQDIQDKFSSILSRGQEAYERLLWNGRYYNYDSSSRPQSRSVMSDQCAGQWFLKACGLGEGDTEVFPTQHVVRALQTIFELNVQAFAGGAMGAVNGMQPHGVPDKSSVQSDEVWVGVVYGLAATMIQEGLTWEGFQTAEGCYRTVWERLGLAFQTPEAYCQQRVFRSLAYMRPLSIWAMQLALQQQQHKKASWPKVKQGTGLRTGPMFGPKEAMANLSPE
Description: (§1) Based on the pull-down validation, a set of eight cyclic peptides (L1, L2, L4, L6, D1, D8, D12 and D13) were identified, synthesized, and evaluated for their inhibitory potency against recombinant human GBA1 (rhGBA1, Cerezyme®) and their selectivity over human β-glucosidases GBA2 and GBA3. Half-maximum inhibitory concentration (IC50) values for β-glucosidases were determined in vitro by measuring hydrolysis of 4-methylumbelliferyl-β-D-glucopyranoside (4-MU-β-D-Glu) fluorogenic substrate. […]
2.5. In vitro IC50 and Ki measurements […]
nM) at 37 °C for 30 min. Following this, 100 µL of 4MU substrate was added and the samples were again incubated at 37 °C for 30 min. The reaction was quenched using excess 1 M NaOH-glycine (200 µL, pH 10.3) and 4MU fluorescence was measured using a LS55 fluorimeter (λEx 366 nm and λEm 445 […]
GBA2 and GBA3 IC50 values were determined following a similar protocol,5 using stable GBA2 or GBA3 HEK293T over-expression cell lysates and McIlvaine buffer pH 5.8 with 0.1 % BSA (w/v) and 100 mM HEPES with 0.1 % BSA, respectively. Covalent inhibitor of endogenous GBA1 (1 µM Bodipy green-cyclophellitol β-epoxide activity based probe) was added for both GBA2 and GBA3 assays, and GBA2 inhibitor N-(5-adamantane-1-yl-methoxy-pentyl)-deoxynojirimycin, AMP-DNM at 1 nM) was added for GBA3 assay. Cell lysates were pre-incubated with the aforementioned GBA1/GBA2 inhibitors for 30 min at 37 °C (12.5 µL) and subsequently incubated with the tested ligands at a range of concentrations for 30 min at 37 °C (12.5 µL), after which 100 µL 4MU-β-D-glucopyranoside was added for a final incubation of 30 min at 37 °C, quenched with 200 µL 1 M NaOH-glycine (pH 10.3) and fluorescence was measured. IC50 values were calculated using GraphPad Prism version 8.

[1] = biological target: T2, recombinant human GBA1 (rhGBA1, Cerezyme) (Homo sapiens, UniProt P04062, R534H); assay: In vitro rhGBA1 inhibition, 4-MU-β-D-glucopyranoside hydrolysis; format: biochemical; details: Cerezyme 14 nM, 3.7 mM 4-MU-β-D-glucopyranoside, McIlvaine pH 5.2, 30 min pre-incubation 37 °C + 30 min, mean ± SD from 3 technical triplicates
T2 construct: purchased Cerezyme
T2 sequence (P04062 40-536 R534H): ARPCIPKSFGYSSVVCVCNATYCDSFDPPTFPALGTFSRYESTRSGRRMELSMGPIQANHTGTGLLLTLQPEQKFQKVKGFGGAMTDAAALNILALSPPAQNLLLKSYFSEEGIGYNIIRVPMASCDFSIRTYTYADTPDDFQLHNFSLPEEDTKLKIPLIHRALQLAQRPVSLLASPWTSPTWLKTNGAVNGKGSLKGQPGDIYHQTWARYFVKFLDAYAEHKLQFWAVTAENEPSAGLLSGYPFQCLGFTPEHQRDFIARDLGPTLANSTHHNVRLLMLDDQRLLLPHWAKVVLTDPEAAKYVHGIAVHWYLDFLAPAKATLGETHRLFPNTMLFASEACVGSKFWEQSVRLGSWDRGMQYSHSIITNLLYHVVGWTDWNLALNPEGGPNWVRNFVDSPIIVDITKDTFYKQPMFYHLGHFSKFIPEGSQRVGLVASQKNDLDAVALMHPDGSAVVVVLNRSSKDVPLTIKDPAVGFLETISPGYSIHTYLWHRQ
Description: as §1
Pure product fractions were pooled, lyophilized, and dissolved again in DMSO before concentration was determined by A280 using a sample diluted in phosphate buffer at pH 7.4 and extinction coefficients determined from the sequence using the Expasy ProtParam online tool (https://web.expasy.org/protparam/). […]
2.5. In vitro IC50 and Ki measurements
For GBA1, IC50 values were determined using the recombinant human GBA1 (rhGBA1, Cerezyme) following described procedures.4 Enzyme activity was measured using 3.7 mM 4-methylumbeliferone (4MU)-β-D-glucopyranoside in 150 mM McIlvaine buffer pH 5.2 supplemented with 0.1% bovine serum albumin (BSA) (w/v), 0.1% Triton X-100 (v/v), and 0.2% sodium taurocholate (w/v). Varying concentrations of inhibitor (12.5 µL) were incubated with 12.5 µL of enzyme (final concentration 14 nM) at 37 °C for 30 min. Following this, 100 µL of 4MU substrate was added and the samples were again incubated at 37 °C for 30 min. The reaction was quenched using excess 1 M NaOH-glycine (200 µL, pH 10.3) and 4MU fluorescence was measured using a LS55 fluorimeter (λEx 366 nm and λEm 445 […]
30 min at 37 °C (12.5 µL) and subsequently incubated with the tested ligands at a range of concentrations for 30 min at 37 °C (12.5 µL), after which 100 µL 4MU-β-D-glucopyranoside was added for a final incubation of 30 min at 37 °C, quenched with 200 µL 1 M NaOH-glycine (pH 10.3) and fluorescence was measured. IC50 values were calculated using GraphPad Prism version 8.

RAW 264.7 cells = assay: In situ competitive activity-based protein profiling (cABPP); format: cell-based; details: 0-100 μM for 4 hours, then JJB75 10 nM for 2 hours, fluorescence SDS-gel scanning
Description: We further investigated GBA1 inhibition in cells. Human dermal fibroblasts were initially incubated with peptide concentrations ranging from 0.1 μM (from 0.001 μM for L4, D1 and D12) to 100 μM of each cyclic peptide for 3 hours. […] To further confirm the inability of these peptides to cross the cell membrane, we conducted in situ competitive activity-based protein profiling (cABPP) experiments using RAW 264.7 monocyte/macrophage-like cells. […]
Figure S6. […] Cells were washed, lysed and analysed by fluorescent readout. […]
Human fibroblasts (Cambrex-Lonza CC-2511) were cultured in complete DMEM/F12 growth medium supplemented with 10% (v/v) foetal calf serum and 0.1 % (w/v) penicillin/streptomycin at 37 °C and 5% CO2. […] GlcCer and GlcSph lipids were quantified as described below. In parallel, enzyme activity in cell lysates was measured using 3.7 mM 4-methylumbeliferone (4MU)-β-D-glucopyranoside in 150 mM McIlvaine buffer pH 5.2 supplemented with 0.1% bovine serum albumin (BSA) (w/v), 0.1% Triton X-100 (v/v), and 0.2% sodium taurocholate (w/v) as described above (see Table S1). […]
Cells were kept on ice and equal protein amounts were loaded per well on a 10% SDS-PAGE gel. Gels were scanned for fluorescence and then stained with Coomassie Brilliant Blue for loading control. […]
Levels of GlcCer and GlcSph were determined with a modified acidic Bligh & Dyer extraction (Figure 2 […]

Structure (SMILES) | IC50 (GBA2) | rhGBA1 IC50 [1] | IC50 ([1]; SD) | competition with ABP JJB75 (cell permeability) (RAW 264.7 cells)
CC[C@H](C)[C@@H]1NC(=O)[C@H](CC(C)C)NC(=O)[C@H](Cc2ccc(O)cc2)NC(=O)[C@H](C)NC(=O)[C@H](CCC(N)=O)NC(=O)[C@H](CO)NC(=O)[C@H](CCCCN)NC(=O)[C@H]([C@@H](C)O)NC(=O)[C@H](Cc2c[nH]c3ccccc23)NC(=O)[C@H]([C@@H](C)O)NC(=O)[C@H]([C@@H](C)CC)NC(=O)[C@H](C(C)C)NC(=O)[C@H](CCC(N)=O)NC(=O)[C@@H](Cc2ccc(O)cc2)NC(=O)CSC[C@@H](C(N)=O)NC(=O)[C@H](CCC(N)=O)NC1=O [D13] ({CH2CO}-[dY]QVITWTKSQAYLIQC-NH2; thioether N-16) | > 100 µM | high micromolar range | 26.4 ± 3.31 µM | –
CC1=CC(C)=[N+]2C1=C(CCCCc1cn(C[C@@H]3[C@@H](O)[C@H](O)[C@@H](O)[C@@H]4O[C@H]34)nn1)c1c(C)cc(C)n1[B-]2(F)F [MDW933] | – | – | – | did show competition
